{
  "source": "ChEMBL document CHEMBL5375989",
  "about": "“Pioneering 4,11-Dioxo-4,11-dihydro-1H-anthra[2,3-d]imidazol-3-ium Compounds as Promising Survivin Inhibitors by Targeting ILF3/NF110 for Cancer Therapy” (J Med Chem, 2023)",
  "key": {"[1]": {"experiment": "Antiproliferative activity against human HUVEC cells assessed as inhibition of cell growth measured after 48 hrs by MTT assay", "format": "toxicity, cell-based", "conditions": "human, HUVEC cells"}, "[2]": {"experiment": "Toxicity in BALB/c mouse assessed as disappearance of nuclei at 2 mg/kg by H and E staining based analysis", "format": "organism-based", "conditions": "in vivo"}, "[3]": {"experiment": "Drug uptake in Sprague-Dawley rat blood at 2 mg/kg measured after 2 hrs by UPLC-3Q analysis", "format": "ADME, organism-based", "conditions": "in vivo"}, "[4]": {"experiment": "Antiproliferative activity against mouse NIH3T3 cells assessed as inhibition of cell growth measured after 48 hrs by MTT assay", "format": "toxicity, cell-based", "conditions": "mouse, NIH3T3 cells"}, "[5]": {"experiment": "Drug metabolism in BALB/C nude mouse kidney xenografted with human A549 cells at 2 mg/kg measured after 2 to 6 hrs by UPLC-3Q analysis", "format": "ADME, organism-based", "conditions": "in vivo, time 2-6 hrs"}, "[6]": {"experiment": "Toxicity in BALB/c mouse assessed as morphological changes with karyorrhexis in spleen at 2 mg/kg by H and E staining based analysis", "format": "organism-based", "conditions": "in vivo"}, "[7]": {"experiment": "Toxicity in BALB/c mouse assessed as appearance of condensed nuclei at 2 mg/kg by H and E staining based analysis", "format": "organism-based", "conditions": "in vivo"}, "[8]": {"experiment": "Toxicity in BALB/c mouse assessed as varying degree of multifocal alveolar luminal hemorrhage at 2 mg/kg by H and E staining based analysis", "format": "organism-based", "conditions": "in vivo"}, "[9]": {"experiment": "Drug distribution in BALB/C nude mouse heart xenografted with human A549 cells at 2 mg/kg measured after 2 to 6 hrs by UPLC-3Q analysis", "format": "ADME, organism-based", "conditions": "in vivo, time 2-6 hrs"}, "[10]": {"experiment": "Toxicity in BALB/c mouse assessed as appearance of renal tubular necrosis in cortex at 2 mg/kg by H and E staining based analysis", "format": "organism-based", "conditions": "in vivo"}, "[11]": {"experiment": "Toxicity in BALB/c mouse assessed as morphological changes with karyopyknosis in spleen at 2 mg/kg by H and E staining based analysis", "format": "organism-based", "conditions": "in vivo"}, "[12]": {"experiment": "Antiproliferative activity against human MRC5 cells assessed as inhibition of cell growth measured after 48 hrs by MTT assay", "format": "toxicity, cell-based", "conditions": "human, MRC5 cells"}, "[13]": {"experiment": "Selectivity index, ratio of IC50 for mouse L929 cells to IC50 for human A549 cells", "format": "toxicity", "conditions": "L929 cells and A549 cells, read-out: Ratio IC50"}, "[14]": {"target": "T1, Interleukin enhancer-binding factor 3 (Homo sapiens, UniProt Q12906)", "T1 sequence (Q12906 whole entry)": "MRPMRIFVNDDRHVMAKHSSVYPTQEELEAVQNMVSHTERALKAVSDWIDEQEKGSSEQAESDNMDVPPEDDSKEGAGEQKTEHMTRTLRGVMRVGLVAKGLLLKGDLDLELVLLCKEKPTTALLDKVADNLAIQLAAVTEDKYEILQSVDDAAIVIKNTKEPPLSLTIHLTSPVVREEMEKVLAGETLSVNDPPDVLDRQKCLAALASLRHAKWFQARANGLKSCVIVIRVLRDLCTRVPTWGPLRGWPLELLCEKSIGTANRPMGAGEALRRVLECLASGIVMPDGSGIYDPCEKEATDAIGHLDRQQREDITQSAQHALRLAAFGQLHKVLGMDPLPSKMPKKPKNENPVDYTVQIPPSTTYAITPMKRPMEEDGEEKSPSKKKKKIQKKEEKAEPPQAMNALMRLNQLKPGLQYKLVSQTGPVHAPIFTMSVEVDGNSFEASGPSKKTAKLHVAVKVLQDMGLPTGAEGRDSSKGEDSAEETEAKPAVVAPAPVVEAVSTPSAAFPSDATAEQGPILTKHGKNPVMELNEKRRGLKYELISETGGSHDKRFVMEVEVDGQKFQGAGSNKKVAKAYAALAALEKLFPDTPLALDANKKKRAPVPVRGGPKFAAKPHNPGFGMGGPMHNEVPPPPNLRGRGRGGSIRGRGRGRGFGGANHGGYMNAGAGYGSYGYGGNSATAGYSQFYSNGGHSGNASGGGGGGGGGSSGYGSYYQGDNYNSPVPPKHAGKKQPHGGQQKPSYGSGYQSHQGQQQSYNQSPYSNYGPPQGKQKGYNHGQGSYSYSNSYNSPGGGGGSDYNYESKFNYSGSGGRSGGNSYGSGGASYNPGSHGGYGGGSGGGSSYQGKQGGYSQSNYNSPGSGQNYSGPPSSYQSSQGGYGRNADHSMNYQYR", "experiment": "Binding affinity to ILF3 (unknown origin) assessed as dissociation constant at upto 1 uM by SPR method"}, "[15]": {"experiment": "Toxicity in BALB/c mouse assessed as appearance of spotty necrosis of hepatocytes at 2 mg/kg by H and E staining based analysis", "format": "organism-based", "conditions": "in vivo"}, "A549 [16]": {"test_system": "A549", "experiment": "Antitumor activity against human A549 cells xenografted in BALB/c nude mouse assessed as decrease in tumor cell proliferation at 2 mg/kg measured after 14 days by Ki67 staining based analysis", "format": "functional, organism-based", "conditions": "time 14.0 day"}, "A549 [17]": {"test_system": "A549", "experiment": "Antitumor activity against human A549 cells xenografted in BALB/c nude mouse assessed as decrease in tumor cell proliferation at 2 mg/kg measured after 14 days by PCNA staining based analysis", "format": "functional, organism-based", "conditions": "time 14.0 day"}, "[18]": {"experiment": "Toxicity in BALB/c nude mouse assessed as side effects at 2 mg/kg, sc administered every 2 days for 14 days", "format": "organism-based", "conditions": "in vivo, 336 h, time 14 day"}, "A549 [19]": {"test_system": "A549", "experiment": "Antitumor activity against human A549 cells xenografted in BALB/c nude mouse assessed as appearance of various size of tumor necrosis at 2 mg/kg measured after 14 days by H and E staining based analysis", "format": "functional, organism-based", "conditions": "time 14.0 day"}, "[20]": {"experiment": "Toxicity in BALB/c nude mouse assessed as effect on body weight at 2 mg/kg, sc administered every 2 days for 14 days", "format": "organism-based", "conditions": "in vivo, 336 h, time 14 day"}, "A549 [21]": {"test_system": "A549", "experiment": "Antitumor activity against human A549 cells xenografted in BALB/c nude mouse assessed as increase in apoptosis at 2 mg/kg measured after 14 days by tunel staining based analysis", "format": "functional, organism-based", "conditions": "time 14.0 day"}, "[22]": {"experiment": "Toxicity in BALB/c mouse assessed as appearance of acidophilic degeneration of myocardial cells at 2 mg/kg by H and E staining based analysis", "format": "organism-based", "conditions": "in vivo"}, "[23]": {"experiment": "Toxicity in BALB/c mouse assessed as appearance of severe damage to spleen tissue at 2 mg/kg by H and E staining based analysis", "format": "organism-based", "conditions": "in vivo"}, "A549 [24]": {"test_system": "A549", "experiment": "Antitumor activity against human A549 cells xenografted in BALB/c nude mouse assessed as inhibition of tumor growth at 2 mg/kg, sc administered every 2 days for 14 days", "format": "functional, organism-based", "conditions": "time 14.0 day"}},
  "note": "The source made the active and inactive calls. The calls are words filed in the database; no cut-off is given here.",
  "data": [
    {"smiles": "COCCn1c2c([n+](Cc3cnccn3)c1C)C(=O)c1ccccc1C2=O.[Br-]", "note": "[SEPANTRONIUM BROMIDE]", "values": [
      {"measurement": "IC50 at 48 h", "setting": "[1]", "result": 0.92, "unit": "µM"},
      {"measurement": "Activity", "setting": "[2]", "result": "Toxic"},
      {"measurement": "Drug uptake", "setting": "[3]", "result": "Not Active"},
      {"measurement": "IC50 at 48 h", "setting": "[4]", "result": 13.6, "unit": "µM"},
      {"measurement": "Drug metabolism", "setting": "[5]", "result": "Metabolite_Detected"},
      {"measurement": "Activity", "setting": "[6]", "result": "Toxic"},
      {"measurement": "Activity", "setting": "[7]", "result": "Toxic"},
      {"measurement": "Activity", "setting": "[8]", "result": "Toxic"},
      {"measurement": "Drug uptake", "setting": "[9]", "result": "Active"},
      {"measurement": "Activity", "setting": "[10]", "result": "Toxic"},
      {"measurement": "Activity", "setting": "[11]", "result": "Toxic"},
      {"measurement": "IC50 at 48 h", "setting": "[12]", "result": 1.94, "unit": "µM"},
      {"measurement": "selectivity ratio", "setting": "[13]", "result": 970},
      {"measurement": "Kd", "setting": "[14]", "result": 0.571, "unit": "µM"}
    ]},
    {"smiles": "COc1cccc2c1C(=O)c1c(O)c3c(c(O)c1C2=O)C[C@@](O)(C(=O)CO)C[C@@H]3O[C@H]1C[C@H](N)[C@H](O)[C@H](C)O1", "note": "[DOXORUBICIN]", "values": [
      {"measurement": "Activity", "setting": "[15]", "result": "Toxic"},
      {"measurement": "Activity", "setting": "A549 [16]", "result": "Active"},
      {"measurement": "Activity", "setting": "A549 [17]", "result": "Active"},
      {"measurement": "Activity", "setting": "[18]", "result": "Toxic"},
      {"measurement": "Activity", "setting": "A549 [19]", "result": "Active"},
      {"measurement": "Activity", "setting": "[20]", "result": "Toxic"},
      {"measurement": "Activity", "setting": "A549 [21]", "result": "Active"},
      {"measurement": "Activity", "setting": "[22]", "result": "Toxic"},
      {"measurement": "Activity", "setting": "[23]", "result": "Toxic"},
      {"measurement": "Activity", "setting": "A549 [24]", "result": "Active"}
    ]}
  ]
}
